Common to all, as to format: cell-based
Experiment [1] has as its system HBC-4. The experiment can be described thus: JFCR39 cancer cell growth inhibition test, HBC-4. The following applies: Homo sapiens, HBC4; HBC-4, Br (Breast).
For experiment [2], the system named is SF-295. The experiment is described as follows: JFCR39 cancer cell growth inhibition test, SF-295. The note with it: Homo sapiens; SF-295, CNS (Central Nervous Systems).
The subject of experiment [3] is SNB-75. The experiment is described as follows: JFCR39 cancer cell growth inhibition test, SNB-75. The following applies: Homo sapiens; SNB-75, CNS (Central Nervous Systems).
The test system of experiment [4] is SNB-78. The experiment is described as follows: JFCR39 cancer cell growth inhibition test, SNB-78. The note with it: Homo sapiens; SNB-78, CNS (Central Nervous Systems).
Experiment [5] relates to NCI-H226. The experiment can be described thus: JFCR39 cancer cell growth inhibition test, NCI-H226. The note with it: Homo sapiens; NCI-H226, Lu (Lung).
The test system of experiment [6] is NCI-H460. The experiment can be described thus: JFCR39 cancer cell growth inhibition test, NCI-H460. The following applies: Homo sapiens; NCI-H460, Lu (Lung).
Experiment [7] relates to OVCAR-4. The experiment is described as follows: JFCR39 cancer cell growth inhibition test, OVCAR-4. The following applies: Homo sapiens; OVCAR-4, Ov (Ovarian).
Experiment [8] deals with MKN28. The experiment is described as follows: JFCR39 cancer cell growth inhibition test, MKN28. The note with it: Homo sapiens, MKN-28; MKN28, St (Stomac).
The test system of experiment [9] is MKN45. The experiment can be described thus: JFCR39 cancer cell growth inhibition test, MKN45. The following applies: Homo sapiens, MKN-45; MKN45, St (Stomac).
For experiment [10], the system named is DU-145. The experiment can be described thus: JFCR39 cancer cell growth inhibition test, DU-145. The following applies: Homo sapiens; DU-145, xPg (Prostate).

Each structure is given as a SMILES string.

For `C/C(=C\Cc1c(O)c(Cl)c(C)c(C=O)c1O)CC/C=C(\C)[C@@H]1CC(=O)C(C)(C)O1` (racemic) [Ascofuranone, dl-5-Chloro-2,4-dihydroxy-6-methyl-3-[(2E,6E)-3-methyl-7-(3,3-dimethyl-4-oxo-2-oxacyclopentyl)-2,6-octadienyl]benzaldehyde], the GI50 in experiment [1] turned out to be 9.1 µM; in experiment [2], 5.3 µM; in [3], 23 µM; in experiment [4], 23 µM; in [5], 15 µM; in experiment [6], 2 µM. The GI50 in experiment [7] was 5.9 µM; in experiment [8], 9.7 µM; in experiment [9], 10 µM; in experiment [10], 11 µM.
